In general, EC50 refers to the concentration needed to bring the measured effect to its halfway point.

In this assay the target is human KV7.2/KV7.3 (Homo sapiens (Human), UniProt O43525+O43526). The assay is described as follows: Potassium flux assay (IPG-2 AM dye). Conditions: TREX HEK 293 or HEK 293 cells expressing human KV7.2/KV7.3; arithmetic mean values. It counts as cell-based. Put shortly:
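HEK 293 or TREX HEK 293 cells stably expressing human KV7.2/KV7.3 (tetracycline-induced where needed), loaded with IPG-2 AM, then compound for 20 min at room temperature. Flux triggered by K challenge buffer (10 mM KCl, pH 7.4), read at 530/558 nm; EC50 from 16-point 2-fold series from 30 μM, normalised to DMSO and reference modulator.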

The structures appear in SMILES notation.

For `Cc1nn(C)cc1[C@@H](C)Oc1ccc2c(Nc3ccc(Cl)nc3)nccc2c1` [Example 174, (R)—N-(6-chloropyridin-3-yl)-6-(1-(1,3-dimethyl-1H-pyrazol-4-yl)ethoxy)isoquinolin-1-amine], the EC50 was in the range of 1000 to 10000 nM. Under `OC12CC3CC(C1)CC(Oc1ccc4c(Nc5ccc(Cl)nc5)nccc4c1)(C3)C2` [Example 331, 3-((1-((6-chloropyridin-3-yl)amino)isoquinolin-6-yl)oxy)adamantan-1-ol] stands below 1000 nM; under `CN(C)C(=O)/C=C/c1ccc2c(Nc3ccc(Cl)nc3)nccc2c1` [Example 246, (E)-3-(1-((6-chloropyridin-3-yl)amino)isoquinolin-6-yl)-N,N-dimethylacrylamide], 1000 to 10000 nM; under `Cc1csc2c(Nc3ccc(Cl)nc3)nccc12` [Example 17, N-(6-chloropyridin-3-yl)-3-methylthieno[2,3-c]pyridin-7-amine], 1000 to 10000 nM. As for `Cc1ncc(Nc2nccc3cc(O[C@H]4CCC[C@@H](O)C4)ccc23)cn1` [Example 339, (1R,3S)-3-((1-((2-methylpyrimidin-5-yl)amino)isoquinolin-6-yl)oxy)cyclohexan-1-ol], the figure is below 1000 nM; as for `FC1(COc2ccc3c(Nc4cnc(Cl)nc4)nccc3c2)COC1` [Example 56, N-(2-chloropyrimidin-5-yl)-6-((3-fluorooxetan-3-yl)methoxy)isoquinolin-1-amine], below 1000 nM.

The values above are taken from patent US20240101531A1, “PYRIDINAMINE DERIVATIVES AND THEIR USE AS POTASSIUM CHANNEL MODULATORS” (Xenon Pharmaceuticals Inc., priority 2022, published 2024).
